Assay results taken from patent publication US11793197B2, “Use of an amphidinol for its fungicidal and/or bactericidal activity on fungi, oomycetes and/or pathogenic bacteria of plants and crop seeds” (Immunrise […], priority 2017, dated 2023).

Test system: F. graminearum spores
Format: cell-based, Fusarium graminearum

## C=C/C=C/CC/C=C/C=C/C=C/CC/C=C/[C@H](O)[C@H](O)[C@@H]1O[C@@H]([C@H](O)[C@H](O)C(=C)CC[C@@H](O)[C@H]2C[C@@H](O)[C@@H](O)[C@H]([C@@H](O)[C@H](O)/C=C(\C)CCC(O)CC(O)C(O)C(C)CC(O)C(O)CC(C)CCC(O)CC(=O)CC(O)CCCC(O)CCCCC(O)CO)O2)C[C@@H](O)[C@H]1O (stereo partly shown) [amphidinol 18]
  antifungal activity against F. graminearum: has antifungal activity
